US20260152468A1, “NOVEL CERAMIDE, PREPARATION METHOD THEREFOR, AND USE THEREOF” (SHENZHEN DIKEMAN BIOTECHNOLOGY CO., LTD., priority 2022, published 2026)

Experiments:
[1] = test system: interleukin-6 (IL-6) cytokine expression in B16 murine melanoma cells; assay: Anti-inflammatory repair efficacy, LPS-induced cell assay (IL-6 ELISA kit); assay type: cell-based; details: 1 mmol/L
Description: B16 murine melanoma cells were seeded in a 96-well plate at a cell density of 1×10^4 cells/well and placed in an incubator overnight to allow cell adhesion. After 24 hours of incubation, the supernatant was discarded, and 100 μL of samples (i.e., the product obtained in Example 1) at different concentrations diluted with DMEM medium and DMEM culture medium free of the samples as a negative control group were added into the cells, each group in triplicate, followed by incubating under an atmosphere of 5% CO2 expressed by mass fraction at 37° C. At 2 hours after administration, 10 μg/mL LPS was added into both lipopolysaccharide model groups and experimental groups and then co-incubated for 24 hours. After the reaction, 50 μL of the cell supernatant was taken and detected for IL-6 gene expression using a IL-6 ELISA kit.

[2] = test system: AQP3 (aquaporin 3) expression in HaCat cells; assay: Moisturizing efficacy by AQP3 cell assay; assay type: cell-based, human; details: 2.5 mmol/L
Description: Aquaporin 3 (AQP3) is a transporter factor responsible for transport of water, glycerol and urea on cell membrane, which is mainly expressed in keratinocytes and skin fibroblasts. AQP3 is not only involved in skin hydration and barrier function, but also plays an important role in skin damage, repair and healing, and is an important guarantee for maintenance of normal skin morphology and function.
The HaCat cells were seeded in a 96-well plate at a density of 1×10^4 cells/well and placed in an incubator overnight to allow cell adhesion. After 24 hours of incubation, the supernatant was discarded, and 100 μL of samples (i.e., the product obtained in Example 1) at different concentrations diluted with DMEM medium and DMEM medium free of the samples as a negative control group were added into the plate, each group in triplicate, followed by incubating under an atmosphere of 5% CO2 expressed by mass fraction at 37° C. At 2 hours after administration, […] LPS was added into both lipopolysaccharide model groups and experimental groups and then co-incubated for 24 hours. After completing the reaction, 50 μL of the cell supernatant was taken and detected for the AQP3 gene expression in the cells using a AQP3 assay kit.

[3] = test system: human keratinocytes (HaCaT) cells; assay: Cell proliferation and viability by MTT assay; assay type: cell-based
Description: Cell proliferation and viability as detected by methylthiazolyldiphenyl-tetrazoliun bromide (MTT) assay: human keratinocytes (HaCaT) cells were seed in a 96-well plate at a cell density of 1×10^4 cells/well and placed in an incubator overnight. After 24 hours of incubation, the supernatant was discarded and 100 μL of culture medium containing samples (i.e., the product obtained in Example 1) at different concentrations or blank control (culture medium only) was added into the cells, and incubated for additional 24 hours, followed by removing the culture medium, adding 100 μL of MTT to each well, measuring the absorbance at 450 nm, and calculating the cell viability as: Cell viability=Adosing/Ablank×100%.

| Substance | inhibition of expression of IL-6 inflammatory factors, comparison (FIG. 5) [1] | increase of expression level of AQP3, comparison (FIG. 8) [2] | abilities of cell healing and tissue-repairing (cell proliferation and viability assay, FIGS. 1-3) [3] |
| --- | --- | --- | --- |
| ceramide 3 | effectively inhibit the expression of IL-6 inflammatory factors | effectively increase the expression level of AQP3 |  |
| ceramide 3B | effectively inhibit the expression of IL-6 inflammatory factors | effectively increase the expression level of AQP3 | relatively good abilities of cell healing and tissue-repairing |
